Measurements published in US6969720B2, “Biaryl substituted purine derivatives as potent antiproliferative agents” (AMR Technology, Inc., priority 1999, dated 2005).
Several values for one entry are separate records, joined by “and”; a condition that tells them apart may be missing. Equal values may be shown once.

Columns and labels:
HeLa S-3 cells = test: Inhibition of cell growth (SRB), HeLa cells; format: cell-based, human; conditions: 2 days of treatment, sulforhodamine B, replicate experiments listed singly
Description: D. Measuring the Inhibition of Cell Growth
Growth inhibition (GI50) values were measured with HeLa S-3 cells selected for growth on plastic. […] One day later, a control plate was fixed by addition of TCA to 5%. After five rinses with tap water the plate was air dried and stored at 4° C. Test compounds were added to the remaining plates at 10-fold dilutions between 0.01 and 100 μM. Two days later all plates were fixed as described above. Cells were then stained by the addition of 100 μl per well of 0.4% sulforhodamine B (SRB) in 1% acetic acid for 30 min at 4° C. Wells were then quickly rinsed 5× with acetic acid (1%) and allowed to air dry. The SRB was then solubilized by the addition of 100 μl per well of unbuffered 10 mM Tris base. Dye was quantified by measuring absorbance at 490 nm on a Molecular Devices kinetic microplate reader. Growth at each inhibitor concentration relative to the untreated control was calculated according to the following equation: percent growth=100×(T−To)/(C−To), where T was the average optical density (OD) of the test wells after 2 days of treatment, To was the average OD of the wells in the control plate on day 0 and C was the average OD of untreated wells. Plots of percent growth versus inhibitor concentration were used to determine the GI50.

implanted tumors = test: Efficacy study, implanted tumors; format: in vivo, athymic mice; conditions: IP
Description: The efficacy study consists of three compound-treated groups (six mice/group), a positive control-treated group (six mice), and a vehicle-treated control group of 12 mice. Test compounds were administered IP under the treatment schedules listed above (qd×14 or q4d×3), whereas the positive control agent (Taxol) was administered intravenously (IV) at a dosage level of 15 mg/kg/dose for five consecutive days (qd×5). All agents were administered on the basis of individual animal body weight. Treatment began when the implanted tumors were approximately 100 mg in size (range of 65 to 200 mg). The mice were observed daily for survival. Each tumor was measured by caliper in two dimensions and converted to tumor mass using the formula for a prolate ellipsoid (a×b^2/2) and assuming unit density. Tumor measurements and animal body weights were recorded twice weekly. Antitumor activity was assessed by the delay in tumor growth of the treated groups in comparison to the vehicle-treated control group, partial and complete regressions, and tumor-free survivors.

[1] = system: Tumor Cells in Hollow Fibers; test: NCI Hollow Fiber Assay; format: in vivo

Row | Compound | GI50 (HeLa S-3 cells) | also measured
1 | CC(=O)N[C@@H](C)CNc1nc(NCc2ccc(-c3ccccc3)cc2)c2ncn(C(C)C)c2n1 [Compound 108] | 5000 nM | –
2 | CC(=O)N[C@H]1CC[C@H](Nc2nc(NCc3ccc(-c4ccoc4)cc3)c3ncn(C(C)C)c3n2)CC1 [Compound 165] | – | melting point: 241 to 243 °C
3 | CC(C)n1cnc2c(NCc3ccc(-c4ccsc4)cc3)nc(N[C@H]3CC[C@H](N)CC3)nc21 [Compound 12] | – | T-C (implanted tumors; 0.27 mg/kg, q4d × 3): 1.2 days; T-C (implanted tumors; 0.4 mg/kg, q4d × 3): 0.2 days; T-C (implanted tumors; 0.6 mg/kg, q4d × 3): 0.3 days
4 | CC[C@H](CO)Nc1nc(NCc2ccc(-c3cccnc3)cc2)c2ncn(C(C)C)c2n1 [Compound 25] | 2000 nM and 400 nM and > 1000 nM | –
5 | CC(=O)N[C@H]1CC[C@H](Nc2nc(NCc3ccc(-c4ccccc4)nc3)c3ncn(C(C)C)c3n2)CC1 [Compound 87] | – | T-C (implanted tumors; 10 mg/kg, q4d × 3): 2.9 days; Tumor free/total (implanted tumors; 10 mg/kg, q4d × 3): 0/6; T-C (implanted tumors; 15 mg/kg, q4d × 3): 2.5 days; Tumor free/total (implanted tumors; 15 mg/kg, q4d × 3): 0/6
6 | CC[C@H](CO)Nc1nc(NCc2ccc(-c3ccc(OC)cc3)cc2)c2ncn(C(C)C)c2n1 [Compound 43] | 8000 nM | –
7 | CC(C)n1cnc2c(NCc3ccc(-c4cccnc4)cc3)nc(N[C@H]3CC[C@H](N)CC3)nc21 [Compound 103] | 30 nM and 8 nM and 20 nM and 10 nM | Cell Types Killed [1]: OVCAR 3, OVCAR 5,
8 | C=Cc1ccc(-c2ccc(CNc3nc(N[C@H](CC)CO)nc4c3ncn4C(C)C)cc2)cc1 [Compound 33] | 1000 nM and 2000 nM and 900 nM | –
9 | Cn1cnc2c(NCc3ccc(-c4ccccc4)cc3)nc(N[C@H]3CC[C@H](N)CC3)nc21 [Compound 139] | – | melting point: 182 to 184 °C
10 | CC[C@H](CO)Nc1nc(NCc2ccc(-c3ccccn3)cc2)c2ncn(C(C)C)c2n1 [Compound 17] | 600 nM and 300 nM | –
11 | CC(=O)N[C@H]1CC[C@H](Nc2nc(NCc3ccc(-c4ccccn4)nc3)c3ncn(C(C)C)c3n2)CC1 [Compound 94] | 70 nM | Cell Types Killed [1]: COLO205, OVCAR-3, H522
12 | CC(C)n1cnc2c(NCc3ccc(-c4cccs4)cc3)nc(N[C@H]3CC[C@H](N)CC3)nc21 [Compound 111] | – | melting point: 109 to 110 °C
13 | CC[C@H](CO)Nc1nc(NCc2ccc(-c3ccc(C(O)CO)cc3)cc2)c2ncn(C(C)C)c2n1 (some centres unmarked) [Compound 34] | 6000 nM | –
14 | CCCNCCCCNc1nc(NCc2ccc(-c3ccccc3)cc2)c2ncn(C(C)C)c2n1 [Compound 215] | 3000 nM | –
15 | CC(C)n1cnc2c(NCc3ccc(-c4ccccc4)cc3)nc(N[C@H]3CCCC[C@H]3NC(=O)Nc3ccccc3)nc21 [Compound 80] | > 100000 nM | –
16 | CCCN(CCC)CCNc1nc(NCc2ccc(-c3ccccc3)cc2)c2ncn(C(C)C)c2n1 [Compound 210] | 4000 nM | –
17 | CC(C)n1cnc2c(NCc3ccc(-c4ccccn4)cc3)nc(N[C@H]3CC[C@H](N)CC3)nc21 [Compound 78] | – | T-C (implanted tumors; 0.33 mg/kg, qd × 14): 1.8 days; Tumor free/total (implanted tumors; 0.33 mg/kg, qd × 14): 0/6; T-C (implanted tumors; 0.5 mg/kg, qd × 14): 0.8 days; Tumor free/total (implanted tumors; 0.5 mg/kg, qd × 14): 0/6; T-C (implanted tumors; 1.0 mg/kg, q4d × 3): 1.1 days; Tumor free/total (implanted tumors; 1.0 mg/kg, q4d × 3): 0/6
18 | CC(=O)NCCCNc1nc(NCc2ccc(-c3ccccc3)cc2)c2ncn(C(C)C)c2n1 [Compound 212] | 3000 nM | –
19 | CC(C)n1cnc2c(NCc3cccnc3)nc(N[C@@H]3CCCC[C@@H]3N)nc21 [Compound 126, reference compound] | 2000 nM and 4000 nM and 6000 nM | –

Further lines, with some results ahead:

Row | GI50 (HeLa S-3 cells) | Compound | also measured
20 | 80 nM | CC(C)n1cnc2c(NCc3ccc(-c4ccccn4)nc3)nc(N[C@H]3CC[C@H](N)CC3)nc21 [Compound 93] | –
21 | 40 nM and 100 nM | CC(=O)N[C@H]1CC[C@H](Nc2nc(NCc3ccc(-c4cccc(CN)c4)cc3)c3ncn(C(C)C)c3n2)CC1 [Compound 223] | –
22 | 30 nM | CC(C)n1cnc2c(NCc3ccc(-c4ccccc4)nc3)nc(N[C@H]3CC[C@H](N)CC3)nc21 [Compound 86] | –
23 | 30 nM and 10 nM | CC(=O)N[C@H]1CC[C@H](Nc2nc(NCc3ccc(-c4cccc(Cl)c4)cc3)c3ncn(C(C)C)c3n2)CC1 [Compound 110] | –
24 | 100 nM | CC(C)n1cnc2c(NCc3ccc(-c4ccoc4)cc3)nc(N[C@H]3CC[C@H](N)CC3)nc21 [Compound 164] | –
25 | 6000 nM | CC(=O)N[C@H]1CCCC[C@@H]1Nc1nc(NCc2ccc(-c3ccccc3)cc2)c2ncn(C(C)C)c2n1 [Compound 60] | –
26 | 400 nM | CC(=O)N[C@H]1CC[C@H](Nc2nc(NCc3ccc(-c4ccc(C)s4)cc3)c3ncn(C(C)C)c3n2)CC1 [Compound 158] | melting point: 225 to 230 °C
27 | 300 nM | CCCN[C@H]1CC[C@H](Nc2nc(NCc3ccc(-c4cc(C)cs4)cc3)c3ncn(C(C)C)c3n2)CC1 [Compound 162] | –
28 | 200 nM | CC(=O)N[C@H]1CC[C@H](Nc2nc(NCc3ccc(-c4cc(C)cc(C)c4)cc3)c3ncn(C(C)C)c3n2)CC1 [Compound 150] | –
29 | 400 nM | CC(C)n1cnc2c(NCc3ccc(-c4ccc(F)c(Cl)c4)cc3)nc(N[C@H]3CC[C@H](N)CC3)nc21 [Compound 14] | –
30 | 300 nM | Cc1csc(-c2ccc(CNc3nc(N[C@H]4CC[C@H](N)CC4)nc4c3ncn4C(C)C)cc2)c1 [Compound 160] | –
31 | 400 nM | CC(=O)N[C@H]1CC[C@H](Nc2nc(NCc3ccc(-c4cc(C)cs4)cc3)c3ncn(C(C)C)c3n2)CC1 [Compound 161] | melting point: 222 to 223 °C
32 | > 10000 nM | CC[C@H](CO)Nc1nc(NCc2ccc(-c3cccc(NC(C)=O)c3)cc2)c2ncn(C(C)C)c2n1 [Compound 5] | –
33 | 40 nM and 10 nM | CC(=O)N[C@H]1CC[C@H](Nc2nc(NCc3ccc(-c4cccc(F)c4)cc3)c3ncn(C(C)C)c3n2)CC1 [Compound 96] | –
